The target of this experiment is T1, recombinant Plk1 protein (Homo sapiens, UniProt P53350).
T1 construct: histidine tag (N); made in house; host or cells: SF9 insect cells
T1 sequence (P53350 whole entry): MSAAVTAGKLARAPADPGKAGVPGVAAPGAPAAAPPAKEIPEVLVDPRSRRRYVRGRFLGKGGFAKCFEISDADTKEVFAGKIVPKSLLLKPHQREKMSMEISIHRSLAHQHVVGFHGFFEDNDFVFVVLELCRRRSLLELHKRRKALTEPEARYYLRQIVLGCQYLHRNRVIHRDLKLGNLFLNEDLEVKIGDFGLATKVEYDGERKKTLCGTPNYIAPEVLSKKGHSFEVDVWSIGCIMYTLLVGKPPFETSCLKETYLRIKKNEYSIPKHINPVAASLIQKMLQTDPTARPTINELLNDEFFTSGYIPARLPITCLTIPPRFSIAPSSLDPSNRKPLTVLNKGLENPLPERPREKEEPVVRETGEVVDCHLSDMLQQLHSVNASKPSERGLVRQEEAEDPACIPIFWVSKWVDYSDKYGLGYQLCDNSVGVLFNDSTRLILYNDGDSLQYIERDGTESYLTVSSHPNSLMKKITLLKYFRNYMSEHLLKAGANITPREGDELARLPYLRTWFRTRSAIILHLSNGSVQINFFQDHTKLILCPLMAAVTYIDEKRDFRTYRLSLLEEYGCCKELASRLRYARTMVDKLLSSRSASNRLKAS
In words: Plk1 kinase activity inhibition assay (33P-ATP, alpha casein substrate, flash plates). The format is biochemical. Particulars: enzymatic assay, 100 nM Li-ATP, 80 minutes at 30° C. The method in brief:
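IC50 derived from radioactive flash-plate counts of 33P-labelled alpha casein after 80 min at 30 °C. Reaction: 100 nM 33P-containing ATP, 50–100 ng His-tagged Plk1 (SF9-expressed), 500 ng casein per well, HEPES pH 7.5 buffer with MgCl2/MnCl2.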
For the compound `C[C@@H](Oc1cc(-n2cnc3cnc(CN4CCN(C)CC4)cc32)sc1C(N)=O)c1ccccc1C(F)(F)F` [Example 24, 5-{6-[(4-methylpiperazin-1-yl)methyl]-1H-imidazo[4,5-c]pyridin-1-yl}-3-{(1R)-1-[2-(trifluoromethyl)phenyl]ethoxy}thiophene-2-carboxamide], the IC50 (usually the point on the concentration scale where inhibition reaches its midpoint) is under 10 nM.
For the compound `C[C@@H](Oc1cc(-n2cnc3cnc(CN4CCCN(C)CC4)cc32)sc1C(N)=O)c1ccccc1Cl` [Example 129, 3-[(1R)-1-(2-chlorophenyl)ethoxy]-5-{6-[(4-methyl-1,4-diazepan-1-yl)methyl]-1H-imidazo[4,5-c]pyridin-1-yl}thiophene-2-carboxamide], the IC50 is under 10 nM.
`CCN1CCN(Cc2cc3c(cn2)ncn3-c2cc(OC(C)c3ccccc3C)c(C(N)=O)s2)CC1` (stereo not drawn) [Example 150, 5-{6-[(4-ethylpiperazin-1-yl)methyl]-1H-imidazo[4,5-c]pyridin-1-yl}-3-[1-(2-methylphenyl)ethoxy]thiophene-2-carboxamide]: the IC50 was in the range of 10 to 100 nM.
The result for `CN1CCN(Cc2cc3c(cn2)ncn3-c2cc(OCc3ccccc3C(F)(F)F)c(C(N)=O)s2)CC1` [Example 8, 5-{6-[(4-Methylpiperazin-1-yl)methyl]1H-imidazo[4,5-c]pyridin-1-yl}-3-{[2-(trifluoromethyl)benzyl]oxy}thiophene-2-carboxamide] reads under 10 nM; that for `C[C@@H](Oc1cc(-n2cnc3cnc(CN4CCN(c5cnccn5)CC4)cc32)sc1C(N)=O)c1ccccc1C(F)(F)F` [Example 84, 5-{6-[(4-pyrazin-2-ylpiperazin-1-yl)methyl]-1H-imidazo[4,5-c]pyridin-1-yl}-3-{(1R)-1-[2-(trifluoromethyl)phenyl]ethoxy}thiophene-2-carboxamide], 10 to 100 nM.
Take `COc1cc2c(cn1)ncn2-c1cc(OCc2ccccc2C(F)(F)F)c(C(=O)O)s1` [Example 18, 5-(6-Methoxy-1H-imidazo[4,5-c]pyridin-1-yl)-3-{[2-(trifluoromethyl)benzyl]oxy}thiophene-2-carboxylic acid]: the IC50 lay in the range of 10 to 100 nM.
The result for `CC(Oc1cc(-n2cnc3cnc(CN4CCN(C(=O)N(C)C)CC4)cc32)sc1C(N)=O)c1ccccc1OC(F)F` (stereo not drawn) [Example 134, 4-{[1-(5-carbamoyl-4-{1-[2-(difluoromethoxy)phenyl]ethoxy}-2-thienyl)-1H-imidazo[4,5-c]pyridin-6-yl]methyl}-N,N-dimethylpiperazine-1-carboxamide] reads under 10 nM; that for `C[C@@H](Oc1cc(-n2cnc3cnc(CN4CCN(C)CC4CO)cc32)sc1C(N)=O)c1ccccc1C(F)(F)F` (stereo partly drawn) [Example 126, 5-(6-{[2-(hydroxymethyl)-4-methylpiperazin-1-yl]methyl}-1H-imidazo[4,5-c]pyridin-1-yl)-3-{(1R)-1-[2-(trifluoromethyl)phenyl]ethoxy}thiophene-2-carboxamide], under 10 nM.
For the compound `C[C@@H](Oc1cc(-n2cnc3cnc(CN4CCN(C)C(=O)C4)cc32)sc1C(N)=O)c1ccccc1C(F)(F)F` [Example 72, 5-{6-[(4-methyl-3-oxopiperazin-1-yl)methyl]-1H-imidazo[4,5-c]pyridin-1-yl}-3-{(1R)-1-[2-(trifluoromethyl)phenyl]ethoxy}thiophene-2-carboxamide], the IC50 is under 10 nM.
As for `NC(=O)c1sc(-n2cnc3ccncc32)cc1OCc1ccccc1OC(F)(F)F` [Example 29, 5-(3H-imidazo[4,5-c]pyridin-3-yl)-3-{[2-(trifluoromethoxy)benzyl]oxy}thiophene-2-carboxamide], the concentration for half-maximal inhibition (IC50) was 10 to 100 nM.
As for `CC(Oc1cc(-n2cnc3cc(CNC4CCN(C)CC4)ncc32)sc1C(N)=O)c1ccccc1F` (stereo not drawn) [Example 156, 3-[-1-(2-fluorophenyl)ethoxy]-5-(6-{[(1-methylpiperidin-4-yl)amino]methyl}-3H-imidazo[4,5-c]pyridin-3-yl)thiophene-2-carboxamide], the IC50 is 1000 to 10000 nM.
Consider `NC(=O)c1sc(-n2cnc3ccncc32)cc1OCc1cccc(C(F)(F)F)c1` [Example 30, 5-(3H-imidazo[4,5-c]pyridin-3-yl)-3-{[3-(trifluoromethyl)benzyl]oxy}thiophene-2-carboxamide], for which the IC50 fell in the range of 100 to 1000 nM.
